Legend:
[1] = tested on: A431 cells; experiment: A431 Cell Growth Inhibition Test (MTT Assay); format: cell-based, human; details: for inhibition at 1 µM / IC50: Homo sapiens; for inhibition at 1 µM: A-431, 68 h, read-out: Growth Inhibition Ratio (%); for inhibition at 1 µM / Growth Inhibition Ratio (%): compound 1 μM, 68 h incubation; for IC50: A-431, 68 h incubation
Method in brief: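 Cells seeded at 2500/well in DMEM/F12 with 10% FBS, grown overnight, then exposed to compound for 68 h at 37 °C, 5% CO2. Viability by MTT (0.5 mg/ml, 4 h), DMSO-solubilised, OD 490 nm; IC50 is concentration giving 50% growth inhibition relative to controls.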

[2] = tested on: BT-474 cells; experiment: BT-474 Cell Growth Inhibition Test (SRB Assay); format: cell-based, human; details: 70 h incubation; for IC50 / inhibition at 1 µM: Homo sapiens; for inhibition at 1 µM: BT-474, 70 h, read-out: Growth Inhibition Ratio (%); for inhibition at 1 µM / Growth Inhibition Ratio (%): compound 1 μM
Method in brief: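 Human breast tumour BT-474 cells (1×10^5/ml seeding, overnight) exposed to compound 70 h at 37 °C, 5% CO2; TCA-fixed, SRB-stained, dye dissolved in 10 mM Tris and OD read at 570 nm. Inhibition ratio = (PC−n)/(PC−NC)×100%; IC50 is the concentration giving 50% inhibition, from fitted curves.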

[3] = tested on: A549 cells; experiment: A549 Cell Growth Inhibition Test (MTT Assay); format: cell-based; details: Homo sapiens, 72 h incubation
Protocol: A549 Cell Growth Inhibition Test (MTT Assay)
1. Cell strains: […] (human lung caner cell strains);
Culture medium: 90% F12K+10% FBS;
1. A plate (10 cm) of cells in logarithmic growth phase normally cultured was collected;
2. The culture solution was sucked out. Tthe plate was washed with 5 ml of PBS 1-2 times;
3. PBS was sucked out. 2 ml of 0.25% pancreatin was added to infiltrate the cells for 1 min;
4. The pancreatin was sucked out. The culture plate was placed in an incubator. Digestion was carried out for about 2 min at 37° C.;
5. 4 ml of complete culture solution was added to the culture plate to stop the digestion. The cells were carefully scoured with micropipette (1 ml) to give a uniform cell suspension. The suspension was implanted into a 96-well cell culture plate by 2500 cells/100 μl per well. The culture plate was incubated overnight under 5% CO2 at 37° C. In day 2, 100 μl of culture solution comprising a compound was added in each well, and further incubated for 72 h under 5% CO2 at 37° C.
6. The culture solution was sucked out;
7. 100 μl of serum-free culture solution containing 0.5 mg/ml MTT was added in each well, and incubated for 3 h;
8. The culture solution was carefully sucked out;
9. 100 μl of DMSO was added in each well and vibrated to dissolve;
10. OD values were determined at 490 nM.
1. Calculation of Relative Inhibition Ratio The inhibition ratio of a compound on cell growth=(PC−n)/(PC−NC)×100%
IC50: Concentration of a compound where inhibition ratio was 50%. IC50 values were fitted with Origin7.5.

[4] = tested on: NCI-H460 cells; experiment: NCI-H460 Cell Growth Inhibition Test (MTT Assay); format: cell-based; details: Homo sapiens, 72 h incubation
Method in brief: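 Cells seeded at 2500 per well, left overnight, then exposed to compound for 72 h at 37 °C, 5% CO2. Viability by MTT (0.5 mg/ml, 3 h), DMSO-dissolved, OD 490 nm; inhibition ratio = (PC−n)/(PC−NC)×100%, IC50 from curve fit.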

[5] = tested on: Fadu cells; experiment: Fadu Cell Growth Inhibition Test (MTT Assay); format: cell-based; details: Homo sapiens, 72 h incubation
Method in brief: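 Fadu head and neck cancer cells in EMEM + 10% FBS, 6000 cells/well, dosed next day and incubated 72 h at 37 °C, 5% CO2. MTT 0.5 mg/ml for 3 h, DMSO solubilization, OD at 490 nm; inhibition ratio from positive and negative controls, IC50 from fitted curve.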

| SMILES | IC50 [1] [nM] | IC50 [2] [nM] | IC50 [3] [nM] | IC50 [4] [nM] | inhibition at 1 µM [1] [%] | inhibition at 1 µM [2] [%] | IC50 [5] [nM] | Growth Inhibition Ratio (%) [1] [%] | Growth Inhibition Ratio (%) [2] [%] |
| --- | --- | --- | --- | --- | --- | --- | --- | --- | --- |
| CN(C)C/C=C/C(=O)Nc1cc2c(Nc3ccc(OCc4cccc(F)c4)c(Cl)c3)c(C#N)cnc2cc1OC1CCOC1 (stereo not shown) [Example 9, (E)-N-(4-(4-(3-FLUOROBENZYLOXY)-3-CHLOROPHENYLAMINO)-3-CYANO-7-(TETRAHYDROFURAN-3-YL-OXY)QUINOLIN-6-YL)-4-(DIMETHYLAMINO)-BUT-2-ENAMIDE] | 135 | 5.2 | 1700 | 1700 | – | – | 219 | 90 | 78 |
| CN(C)C/C=C/C(=O)Nc1cc2c(Nc3ccc(F)c(Cl)c3)c(C#N)cnc2cc1OC1CCOC1 (stereo not shown) [Example 4, (E)-N-(4-(3-CHLORO-4-FLUOROPHENYLAMINO)-3-CYANO-7-(TETRAHYDROFURAN-3-YL-OXY)QUINOLIN-6-YL)-4-(DIMETHYLAMINO)-BUT-2-ENAMIDE] | 68 | 140 | 1250 | 1600 | – | – | 331 | 80 | 79 |
| CN(C)C/C=C/C(=O)Nc1cc2c(Nc3ccc(OCc4ccccc4)c(Cl)c3)c(C#N)cnc2cc1OC1CCOC1 (stereo not shown) [Example 12, (E)-N-(4-(4-(BENZYLOXY)-3-CHLOROPHENYLAMINO)-3-CYANO-7-(TETRAHYDROFURAN-3-YL-OXY)QUINOLIN-6-YL)-4-(DIMETHYLAMINO)-BUT-2-ENAMIDE] | 147 | 8 | 2000 | 970 | – | – | 202 | – | – |
| CN(C)C/C=C/C(=O)Nc1cc2c(Nc3cccc(Br)c3)c(C#N)cnc2cc1OC1CCOC1 (stereo not shown) [Example 7, (E)-N-(4-(3-BROMOPHENYLAMINO)-3-CYANO-7-(TETRAHYDROFURAN-3-YL-OXY)QUINOLIN-6-YL)-4-(DIMETHYLAMINO)-BUT-2-ENAMIDE] | 160 | 309 | 3000 | 940 | – | – | 474 | – | – |
| CN(C)C/C=C/C(=O)Nc1cc2c(Nc3ccc(F)c(Cl)c3)c(C#N)cnc2cc1O[C@H]1CCOC1 [Example 142, (S,E)-N-(4-(3-CHLORO-4-FLUOROPHENYLAMINO)-3-CYANO-7-(TETRAHYDROFURAN-3-YL-OXY)QUINOLIN-6-YL)-4-(DIMETHYLAMINO)-BUT-2-ENAMIDE] | 45 | 133 | 1500 | 1040 | 75 | 89 | 115 | – | – |

Now from value to compound, other results behind:

| IC50 [1] [nM] | IC50 [2] [nM] | IC50 [3] [nM] | IC50 [4] [nM] | SMILES | inhibition at 1 µM [1] [%] | inhibition at 1 µM [2] [%] | IC50 [5] [nM] | Growth Inhibition Ratio (%) [1] [%] | Growth Inhibition Ratio (%) [2] [%] |
| --- | --- | --- | --- | --- | --- | --- | --- | --- | --- |
| 62 | 3 | 1500 | 2200 | CN(C)C/C=C/C(=O)Nc1cc2c(Nc3ccc(OCc4ccccn4)c(Cl)c3)c(C#N)cnc2cc1O[C@H]1CCOC1 [Example 138, (S,E)-N-(4-(3-CHLORO-4-(PYRIDIN-2-YL-METHOXY)PHENYLAMINO)-3-CYANO-7-(TETRAHYDROFURAN-3-YL-OXY)QUINOLIN-6-YL)-4-(DIMETHYLAMINO)-BUT-2-ENAMIDE] | 89 | 82 | 101 | – | – |
| 145 | – | 1700 | 1200 | CN(C)C/C=C/C(=O)Nc1cc2c(Nc3ccc(OCc4ccccc4F)c(Cl)c3)c(C#N)cnc2cc1OC1CCOC1 (stereo not shown) [Example 8, (E)-N-(4-(4-(2-FLUOROBENZYLOXY)-3-CHLOROPHENYLAMINO)-3-CYANO-7-(TETRAHYDROFURAN-3-YL-OXY)QUINOLIN-6-YL)-4-(DIMETHYLAMINO)-BUT-2-ENAMIDE] | 91 | 79 | 188 | – | – |
| 158 | 11 | 1100 | 1800 | CN(C)C/C=C/C(=O)Nc1cc2c(Nc3ccc(OCc4ccccc4C#N)c(Cl)c3)c(C#N)cnc2cc1OC1CCOC1 (stereo not shown) [Example 13, (E)-N-(4-(4-(2-CYANOBENZYLOXY)-3-CHLOROPHENYLAMINO)-3-CYANO-7-(TETRAHYDROFURAN-3-YL-OXY)QUINOLIN-6-YL)-4-(DIMETHYLAMINO)-BUT-2-ENAMIDE] | 89 | 75 | 300 | – | – |
| 370 | 8.1 | 3900 | 1400 | CN(C)C/C=C/C(=O)Nc1cc2c(Nc3ccc(OCc4cccc(C#N)c4)c(Cl)c3)c(C#N)cnc2cc1OC1CCOC1 (stereo not shown) [Example 15, (E)-N-(4-(4-(3-CYANOBENZYLOXY)-3-CHLOROPHENYLAMINO)-3-CYANO-7-(TETRAHYDROFURAN-3-YL-OXY)QUINOLIN-6-YL)-4-(DIMETHYLAMINO)-BUT-2-ENAMIDE] | 91 | 71 | 260 | – | – |
| 390 | 32 | 2000 | 1100 | Cc1ccc(COc2ccc(Nc3c(C#N)cnc4cc(OC5CCOC5)c(NC(=O)/C=C/CN(C)C)cc34)cc2Cl)cc1 (stereo not shown) [Example 19, (E)-N-(4-(4-(4-METHYLBENZYLOXY)-3-CHLOROPHENYLAMINO)-3-CYANO-7-(TETRAHYDROFURAN-3-YL-OXY)QUINOLIN-6-YL)-4-(DIMETHYLAMINO)-BUT-2-ENAMIDE] | – | – | – | – | – |
| 184 | 7.9 | 1600 | 1500 | CN(C)C/C=C/C(=O)Nc1cc2c(Nc3ccc(OCc4cccc(Cl)c4)c(Cl)c3)c(C#N)cnc2cc1OC1CCOC1 (stereo not shown) [Example 11, (E)-N-(4-(4-(3-CHLOROBENZYLOXY)-3-CHLOROPHENYLAMINO)-3-CYANO-7-(TETRAHYDROFURAN-3-YL-OXY)QUINOLIN-6-YL)-4-(DIMETHYLAMINO)-BUT-2-ENAMIDE] | – | – | 187 | – | – |

Source: patent US9187458B2, “Cyanoquinoline derivatives” (Tianjin Hemay Bio-Tech Co., LTD., priority 2010, dated 2015)
